The source of these data is patent US20240309059A1, “PEPTIDE HAVING ANTI-VIRAL ACTIVITY, ANTI-VIRAL AGENT COMPRISING SAID PEPTIDE, AND METHOD FOR PRODUCING SAID ANTI-VIRAL AGENT” (National University Corporation Tokyo Medical and Dental …, priority 2021, published 2024).

Ends that are not written are not given here.

Data set [1] in a line: solubility to ultra-pure water. The data set is classed as physicochemical. Conditions: room temperature. Here is the method:
In this Example, Ce4, Ce9, Ce41 and Ce59 developed in the aforementioned Examples were each dissolved in ultra-pure water and the degrees of solubility of them to ultra-pure water were computationally obtained.
Ce4, Ce9, Ce41 and Ce59 having the aforementioned amino acid sequences were chemically synthesized and each dissolved in ultra-pure water. To describe more specifically, the peptides chemically synthesized were each added to ultra-pure water of 250 μL and stirred by pipetting using a micropipette a sufficient number of times and allowed to stand still at room temperature. When undissolved residue was not present, the peptide was further added and the same operation was repeated. When undissolved residue was present, the sample was allowed to stand still for 10 minutes, again stirred by pipetting using a micropipette a sufficient number of times and allowed to stand still at room temperature. After the operation in this step was repeated further twice, concentration was measured by NanoPhotometer NP80 manufactured by IMPLEN to evaluate the degrees of solubility to ultra-pure water.

A short description of data set [2]: solubility to 50 mM HEPES buffer solution (pH 8.0). The data set is classed as physicochemical. Conditions: room temperature. Here is the method: In this Example, Ce113, Ce149, Ce172, Ce173 and Ce174 developed in the aforementioned Examples were each dissolved in 50 mM HEPES buffer solution (pH 8.0) and the degrees of solubility of them to 50 mM HEPES buffer solution (pH 8.0) were computationally obtained.
Ce113, Ce149, Ce172, Ce173 and Ce174 having the aforementioned amino acid sequences were chemically synthesized and each dissolved in a 50 mM HEPES buffer solution (pH 8.0). To describe more specifically, the peptides chemically synthesized were each added to the 50 mM HEPES buffer solution (pH 8.0) of 250 μL and stirred by pipetting using a micropipette a sufficient number of times and allowed to stand still at room temperature. When undissolved residue was not present, the peptide was further added and the same operation was repeated. When undissolved residue was present, the sample was allowed to stand still for 10 minutes, stirred by pipetting using a micropipette a sufficient number of times and allowed to stand still at room temperature. The operation of this step was repeated further twice and then concentration was measured by NanoPhotometer NP80 manufactured by IMPLEN to evaluate the degrees of solubility to the 50 mM HEPES buffer solution (pH 8.0).

In data set [3] the target is receptor binding domain (RBD) in wild-type SARS-COV-2 (Severe acute respiratory syndrome coronavirus 2, UniProt P0DTC2). Conditions: result in words (binding rate and degree of dissociation).

In the case of “DKEWILQKIYEIMRKLDEDGHAEASMRVSDLIYEFMKKD [Ce4]”, the solubility (thermodynamic) – broadly, the concentration in solution at equilibrium with solid – at 30 min in data set [1] turned out to be 4400 µM.
For the compound “DKEWILYKIYEIMQRLDEEGHGEASLMVSDLIYEFMKRD [Ce174]”, the solubility (thermodynamic) at 30 min in data set [2] worked out at 1600 µM.
For “DKEWILQKIYEIMQRLDEEGHGEASLMVSDLIYEFMKRD [Ce113]”, the solubility (thermodynamic) at 30 min in data set [2] is 2500 µM.
For the compound “DKEWILQKIYEIMRRLDEEGHGEASLRVSDLIYEFMKRD [Ce59]”, the thermodynamic solubility at 30 min in data set [1] was found to be 6100 µM. This counts as millimolar.
Take “DKEWILYKIYEIMVRLDEEGHGEASLMVSDLIYEFMKRD [Ce149]”: in data set [2], the solubility (thermodynamic) at 30 min amounted to 1300 µM.
Consider “DKEWILQKIYEIMRRLDEEGHGEASLRVSDLIYEFMKKD [Ce41]”, for which the “binding activity to the receptor binding domain (RBD)” value in data set [3] is “high binding activity”. Besides, the solubility (commonly the concentration that dissolves in the medium under given conditions) in data set [1] was found to be 6100 µM.
Compound “DKLWILQKIYEIMQRLDEEGHGEASLMVSDLIYEFMKRD [Ce173]” returned a solubility (thermodynamic) at 30 min in data set [2] of 1500 µM.
In data set [1], “DKEWILQKIYEIMRRLDEEGHAEASMRVSDLIYEFMKKD [Ce9]” yielded a thermodynamic solubility at 30 min of 5200 µM. For the same compound, half-maximal inhibition with wild-type SARS-COV-2 (IC50) was put at 0.4 nM.
The compound “DKLWILQKIYEIMVRLDEEGHGEASLMVSDLIYEFMKRD [Ce172]” registered a thermodynamic solubility at 30 min in data set [2] of 1100 µM.
As to `CC[C@H](C)[C@H](NC(=O)[C@H](CC(C)C)NC(=O)[C@H](CC(=O)O)NC(=O)[C@H](CO)NC(=O)[C@@H](NC(=O)[C@H](CCCNC(=N)N)NC(=O)[C@H](CCSC)NC(=O)[C@H](CO)NC(=O)[C@H](C)NC(=O)[C@H](CCC(=O)O)NC(=O)[C@H](C)NC(=O)[C@H](Cc1c[nH]cn1)NC(=O)CNC(=O)[C@H](CC(C)C)NC(=O)[C@H](CCC(=O)O)NC(=O)[C@H](CC(=O)O)NC(=O)[C@H](CC(C)C)NC(=O)[C@H](CC(C)C)NC(=O)[C@H](CCCNC(=N)N)NC(=O)[C@H](CCSC)NC(=O)[C@@H](NC(=O)[C@H](CCC(=O)O)NC(=O)[C@H](Cc1ccc(O)cc1)NC(=O)[C@@H](NC(=O)[C@H](CCCCN)NC(=O)[C@H](CCC(N)=O)NC(=O)[C@H](CC(C)C)NC(=O)[C@@H](NC(=O)[C@H](Cc1c[nH]c2ccccc12)NC(=O)[C@H](CCC(=O)O)NC(=O)[C@H](CCCCN)NC(=O)[C@@H](N)CC(=O)O)[C@@H](C)CC)[C@@H](C)CC)[C@@H](C)CC)C(C)C)C(=O)N[C@@H](Cc1ccc(O)cc1)C(=O)N[C@@H](CCC(=O)O)C(=O)N[C@@H](Cc1ccccc1)C(=O)N[C@@H](CCSC)C(=O)N[C@@H](CCCCN)C(=O)N[C@@H](CCCCN)C(=O)NCC(=O)O` [Ca1, reference compound], the IC50 (usually the concentration that gives 50% inhibition) with wild-type SARS-COV-2 amounted to 107 nM.
Same read-out and setting: the figure for `CC[C@H](C)[C@H](NC(=O)[C@H](CC(C)C)NC(=O)[C@H](CC(=O)O)NC(=O)[C@H](CO)NC(=O)[C@@H](NC(=O)[C@H](CCCNC(=N)N)NC(=O)[C@H](CCSC)NC(=O)[C@H](CO)NC(=O)[C@H](C)NC(=O)[C@H](CCC(=O)O)NC(=O)[C@H](C)NC(=O)[C@H](Cc1c[nH]cn1)NC(=O)CNC(=O)[C@H](CC(C)C)NC(=O)[C@H](CCC(=O)O)NC(=O)[C@H](CC(=O)O)NC(=O)[C@H](CC(C)C)NC(=O)[C@H](CC(C)C)NC(=O)[C@H](CCCNC(=N)N)NC(=O)[C@H](CCSC)NC(=O)[C@@H](NC(=O)[C@H](CCC(=O)O)NC(=O)[C@H](Cc1ccc(O)cc1)NC(=O)[C@@H](NC(=O)[C@H](CCCCN)NC(=O)[C@H](CCC(N)=O)NC(=O)[C@H](CC(C)C)NC(=O)[C@@H](NC(=O)[C@H](Cc1c[nH]c2ccccc12)NC(=O)[C@H](CCC(=O)O)NC(=O)[C@H](CCCCN)NC(=O)[C@@H](N)CC(=O)O)[C@@H](C)CC)[C@@H](C)CC)[C@@H](C)CC)C(C)C)C(=O)N[C@@H](Cc1ccc(O)cc1)C(=O)N[C@@H](CCC(=O)O)C(=O)N[C@@H](Cc1ccccc1)C(=O)N[C@@H](CCSC)C(=O)N[C@@H](CCCCN)C(=O)N[C@@H](CCCCN)C(=O)N[C@@H](CC(=O)O)C(=O)O` [Ce1] is 1.5 nM.
